# From patent US20210284647A1, “N-(3-(IMIDAZO[1,2-B]PYRIDAZIN-3-YLETHYNYL)-4-METHYLPHENYL)-5-PHENYL-4,5-DIHYDRO-1H-PYRAZOLE-1-CARBOXAMIDE DERIVATIVE, AND PHARMACEUTICAL COMPOSITION CONTAINING SAME AS ACTIVE INGREDIENT FOR TREATING KINASE-RELATED DISEASES” (VORONOIBIO INC., priority 2018, published 2021)
# Where a name gives a salt, the structure may show the parent alone.
# Columns and labels:
# human GST-RIPK1 = biological target: T1, human GST-RIPK1 (Homo sapiens, UniProt Q13546); assay: RIPK1 inhibitory activity (ADP-Glo kinase assay); format: biochemical; details: human GST-RIPK1 10 ng, ATP 50 uM, 25° C. for 4 hours, read-out: Enzyme IC50
# T1 construct: GST; purchased signalchem
# T1 sequence (Q13546 1-375 limits assumed): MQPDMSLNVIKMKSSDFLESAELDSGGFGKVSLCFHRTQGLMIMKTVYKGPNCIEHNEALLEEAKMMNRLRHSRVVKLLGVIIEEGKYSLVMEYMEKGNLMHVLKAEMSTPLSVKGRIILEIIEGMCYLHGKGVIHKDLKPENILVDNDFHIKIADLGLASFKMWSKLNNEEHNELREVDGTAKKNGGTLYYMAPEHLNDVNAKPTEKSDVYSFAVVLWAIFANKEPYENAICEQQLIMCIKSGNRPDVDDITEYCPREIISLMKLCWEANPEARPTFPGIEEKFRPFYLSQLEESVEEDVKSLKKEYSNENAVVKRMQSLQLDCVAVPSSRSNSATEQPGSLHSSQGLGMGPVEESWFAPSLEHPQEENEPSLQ
# Experimental: The following experiment was performed to evaluate the inhibitory activity of the example compounds according to the present invention against RIPK1 (receptor-interacting serine/threonine protein kinase 1).
# The example compound was reacted with the purified human GST-RIPK1 (1375, signalchem) enzyme to evaluate the enzyme inhibitory activity in the following manner. The composition of the reaction buffer used herein was as follows: 40 mM Tris-Hcl pH 7.4, 20 mM MgCl2, 0.5 mg/ml, BSA and 0.5 uM DTT. All the test materials were reacted in the reaction buffer. After reacting human GST-RIPK1 (1375, 10 ng), purified ATP (50 uM) and a specific substrate solution at 25° C. for 4 hours, the enzyme activity was confirmed using an in vitro ADP-Glo™ kinase assay (promega). Luminoscence was measured by reacting the enzyme activity reaction solution, ADP-Glo reaction solution, and enzyme activity detection solution at the ratio of 2:2:1. The degree of enzyme activity inhibition according to the treatment concentration of each compound was calculated based on the fluorescence of the enzyme activity of the solvent control not treated with the compound. At this time, the concentration of each compound inhibiting 50% of the enzyme activity was determined as IC50 (nM). IC50 of each compound was determined with three data sets and calculated using Prism (version 7.01, GraphPad) software.
# [1] = system: human Jurkat T cells deficient in FADD; assay: Cell protection effect under apoptosis-inducing condition (TNF-α); format: cell-based; details: 40 ng of TNF-α, 50 hours, CellTiter-Glo, read-out: I2.I Cell EC50
# Experimental: The cell protection effect of the compounds according to the present invention under the condition of inducing apoptosis by TNF-α was confirmed by […]. An apoptosis inducing factor such as TNF-α was treated to induce apoptosis of human Jurkat T cells deficient in FADD, to which the example compound was treated, and the cell protection effect was confirmed through the following analysis. Jurkat T cells deficient in FADD were cultured using RPMI medium (Hyclone) containing 10% FBS. When performing the test, the cells were seeded in a 96-well plate containing a medium suitable for the cell line at the density of 10,000 cells/well, and cultured in a 37° C. 5% CO2 incubator for 24 hours. Then, each well was treated with 40 ng of TNF-α, and the compounds prepared in the above examples were each treated with a 3-fold concentration gradient with 1 μM as the highest concentration. As the solvent control, dimethyl sulfoxide (DMSO) was treated at the concentration of 0.05% (v/v), which was the same concentration as that used for the compound treatment. Then, the cells were cultured for 50 hours. To confirm the degree of viability of the cells, a mixture provided in CellTiter-Gloe Luminescent Cell Viability Assay Kit (Promega) was added to the culture medium of the cells, followed by further culture at 37° C. for 30 minutes. Then, luminescence fluorescence was measured. The degree of inhibition of apoptosis induction according to the treatment concentration of each compound was calculated based on the fluorescence of the solvent control cells not treated with the compound. At this time, the concentration of each compound inhibiting 50% was determined as EC50 (μM). EC50 of each compound was calculated using Prism (version 7.01, GraphPad) software.
Compound,IC50 (human GST-RIPK1),EC50 [1]
"O=C(Nc1ccc(F)c(C#Cc2cnc3cccnn23)c1)N1N=CCC1c1ccccc1 (centres unmarked) [Example 44, N-(4-fluoro-3-(imidazo[1,2-b]pyridazin-3-ylethynyl)phenyl)-5-phenyl-4,5-dihydro-1H-pyrazole-1-carboxamide 2,2,2-trifluoroacetate]",18.1 nM,0.37 nM
"CC(=O)Nc1cccn2c(C#Cc3cccc(NC(=O)N4N=CCC4c4ccccc4)c3)cnc12 (centres unmarked) [Example 60, N-(3-((8-acetamidoimidazo[1,2-a]pyridin-3-yl)ethynyl)phenyl)-5-phenyl-4,5-dihydro-1H-pyrazole-1-carboxamide]",64.1 nM,0.4 nM
"Nc1cccn2c(C#Cc3cccc(NC(=O)N4N=CCC4c4ccccc4)c3)cnc12 (centres unmarked) [Example 59, N-(3-((8-aminoimidazo[1,2-a]pyridin-3-yl)ethynyl)phenyl)-5-phenyl-4,5-dihydro-1H-pyrazole-1-carboxamide hydrochloride]",127 nM,17.6 nM
"O=C(Nc1cccc(C#Cc2cnc3ccccn23)c1)N1N=CCC1c1ccccc1 (centres unmarked) [Example 55, N-(3-(imidazo[1,2-a]pyridin-3-ylethynyl)phenyl)-5-phenyl-4,5-dihydro-1H-pyrazole-1-carboxamide]",13.4 nM,1.6 nM
"Cn1cc(Nc2cccn3c(C#Cc4cccc(NC(=O)N5N=CCC5c5ccccc5)c4)cnc23)cn1 (centres unmarked) [Example 67, N-(3-((8-((1-methyl-1H-pyrazol-4-yl)amino)imidazo[1,2-a]pyridin-3-yl)ethynyl)phenyl)-5-phenyl-4,5-dihydro-1H-pyrazole-1-carboxamide 2,2,2-trifluoroacetate]",19 nM,0.08 nM
"O=C(Nc1cccc(C#Cc2cnc3cnccn23)c1)N1N=CCC1c1ccccc1 (centres unmarked) [Example 57, N-(3-(imidazo[1,2-a]pyrazin-3-ylethynyl)phenyl)-5-phenyl-4,5-dihydro-1H-pyrazole-1-carboxamide]",23.8 nM,0.3 nM
"Cc1ccc(NC(=O)N2N=CCC2c2ccc(C(F)(F)F)cc2)cc1C#Cc1cnc2cccnn12 (centres unmarked) [Example 7, N-(3-(imidazo[1,2-b]pyridazin-3-ylethynyl)-4-methylphenyl)-5-(4-(trifluoromethyl)phenyl)-4,5-dihydro-1H-pyrazole-1-carboxamide 2,2,2-trifluoroacetate]",134 nM,1.9 nM
"O=C(Nc1cccc(C#Cc2cnc3cccnn23)c1)N1N=CCC1C1CCCCC1 (centres unmarked) [Example 42, 5-cyclohexyl-N-(3-(imidazo[1,2-b]pyridazin-3-ylethynyl)phenyl)-4,5-dihydro-1H-pyrazole-1-carboxamide]",12.7 nM,1.5 nM
"Cc1ccc(NC(=O)N2N=CC[C@H]2c2ccc(F)cc2)cc1C#Cc1cnc2cccnn12 [Example 12, (S)-5-(4-fluorophenyl)-N-(3-(imidazo[1,2-b]pyridazin-3-ylethynyl)-4-methylphenyl)-4,5-dihydro-1H-pyrazole-1-carboxamide 2,2,2-trifluoroacetate]",19.1 nM,0.2 nM
"Cc1ccc(C(=O)N2N=CCC2c2ccccc2)cc1C#Cc1cnc2cccnn12 (centres unmarked) [Example 54, (3-(imidazo[1,2-b]pyridazin-3-ylethynyl)-4-methylphenyl)(5-phenyl-4,5-dihydro-1H-pyrazol-1-yl)methanone 2,2,2-trifluoroacetate]",32.6 nM,> 1000 nM
"Cc1ccc(NC(=O)N2N=CCC2c2ccc(Cl)cc2)cc1C#Cc1cnc2cccnn12 (centres unmarked) [Example 15, 5-(4-chlorophenyl)-N-(3-(imidazo[1,2-b]pyridazin-3-ylethynyl)-4-methylphenyl)-4,5-dihydro-1H-pyrazole-1-carboxamide 2,2,2-trifluoroacetate]",4.3 nM,0.1 nM
"O=C(Nc1cccc(C#Cc2cnc3cccnn23)c1)N1N=CC[C@H]1c1cc(F)cc(F)c1 [Example 24, (S)-5-(3,5-difluorophenyl)-N-(3-(imidazo[1,2-b]pyridazin-3-ylethynyl)phenyl)-4,5-dihydro-1H-pyrazole-1-carboxamide 2,2,2-trifluoroacetate]",2.76 nM,0.44 nM
"O=C(Nc1cccc(C#Cc2cnc3ncccn23)c1)N1N=CCC1c1ccccc1 (centres unmarked) [Example 58, N-(3-(imidazo[1,2-a]pyrimidin-3-ylethynyl)phenyl)-5-phenyl-4,5-dihydro-1H-pyrazole-1-carboxamide]",15 nM,3.6 nM

# The remaining lines, values ahead:
IC50 (human GST-RIPK1),EC50 [1],Compound
5.1 nM,0.06 nM,"Cc1ccc(NC(=O)N2N=CC[C@H]2c2ccccc2)cc1C#Cc1cnc2cccnn12 [Example 2, (S)—N-(3-(imidazo[1,2-b]pyridazin-3-ylethynyl)-4-methylphenyl)-5-phenyl-4,5-dihydro-1H-pyrazole-1-carboxamide 2,2,2-trifluoroacetate]"
4.83 nM,0.63 nM,"O=C(Nc1cccc(C#Cc2cnc3cccnn23)c1)N1N=CC[C@H]1c1ccc(F)cc1 [Example 32, (S)-5-(4-fluorophenyl)-N-(3-(imidazo[1,2-b]pyridazin-3-ylethynyl)phenyl)-4,5-dihydro-1H-pyrazole-1-carboxamide 2,2,2-trifluoroacetate]"
50.1 nM,> 1000 nM,"O=C(Nc1cc(C#Cc2cnc3cccnn23)ccc1F)N1N=CCC1c1ccccc1 (centres unmarked) [Example 47, N-(2-fluoro-5-(imidazo[1,2-b]pyridazin-3-ylethynyl)phenyl)-5-phenyl-4,5-dihydro-1H-pyrazole-1-carboxamide 2,2,2-trifluoroacetate]"
> 1000 nM,197 nM,"O=C(Nc1ccnc(C#Cc2cnc3cccnn23)c1)N1N=CC[C@@H]1c1ccccc1 [Example 50, (R)—N-(2-(imidazo[1,2-b]pyridazin-3-ylethynyl)pyridin-4-yl)-5-phenyl-4,5-dihydro-1H-pyrazole-1-carboxamide 2,2,2-trifluoroacetate]"
277 nM,6.7 nM,"S=C(Nc1cccc(C#Cc2cnc3cccnn23)c1)N1N=CCC1c1ccccc1 (centres unmarked) [Example 43, N-(3-(imidazo[1,2-b]pyridazin-3-ylethynyl)phenyl)-5-phenyl-4,5-dihydro-1H-pyrazole-1-carbothioamide]"
10.1 nM,0.8 nM,"O=C(Nc1cccc(C#Cc2cnc3cccnn23)c1)N1N=CCC1c1cccc(F)c1 (centres unmarked) [Example 28, 5-(3-fluorophenyl)-N-(3-(imidazo[1,2-b]pyridazin-3-ylethynyl)phenyl)-4,5-dihydro-1H-pyrazole-1-carboxamide 2,2,2-trifluoroacetate]"
221 nM,314 nM,"Cc1ccc(NC(=O)N2N=CC[C@@H]2c2ccccc2)cc1C#Cc1cnc2cccnn12 [Example 3, (R)—N-(3-(imidazo[1,2-b]pyridazin-3-ylethynyl)-4-methylphenyl)-5-phenyl-4,5-dihydro-1H-pyrazole-1-carboxamide 2,2,2-trifluoroacetate]"
205 nM,97.7 nM,"O=C(Nc1ccc(F)c(C#Cc2cnc3cccnn23)c1)N1N=CC[C@@H]1c1ccccc1 [Example 46, (R)—N-(4-fluoro-3-(imidazo[1,2-b]pyridazin-3-ylethynyl)phenyl)-5-phenyl-4,5-dihydro-1H-pyrazole-1-carboxamide 2,2,2-trifluoroacetate]"
> 1000 nM,> 1000 nM,"O=C(Nc1ccc(C#Cc2cnc3cccnn23)cc1)N1N=CCC1c1ccccc1 (centres unmarked) [Example 22, N-(4-(imidazo[1,2-b]pyridazin-3-ylethynyl)phenyl)-5-phenyl-4,5-dihydro-1H-pyrazole-1-carboxamide 2,2,2-trifluoroacetate]"
